Reference: patent publication US10945932B2, “Prebiotic oral care compositions containing carboxylic acids” (COLGATE-PALMOLIVE COMPANY, priority 2013, dated 2021)

Experiments:
Assay in all cases: Biofilm growth assay in BHI, crystal violet
Assay type in all cases: cell-based
[1] = tested on: Actinomyces naeslundii; settings: A naeslundii
Description: (§1) Late exponential growth phase liquid cultures were prepared by transferring the respective bacterium from blood agar plates to BHI and overnight incubation at 37° C. in an anaerobic atmosphere for A. viscosus, V. parvula, F. nucleatum, P. gingivalis, P. intermedia, T. forsythia, A. naeslundii, and C. sputigena, and in a 5% CO2 environment for S. salivarius, S. sanguinis, S. mitis, A. actinomycetemcomitans, S. mutans, and S. gordonii. […] Additionally, for each bacterium tested, a background control, to correct for background staining, was added. This background control contained the bacterium tested and 0.03 weight % chlorhexidine, as an antiseptic. Plates were incubated as previously described. After 48 hrs the supernatant was removed from the wells of the plates. The wells were washed twice with 1×100 μL/PBS (phosphate buffered saline), fixed for 20 minutes with 96% vol. ethanol (96% vol. solution in water) and the biofilm retained at the bottom of the wells was stained with 1 weight % crystal violet (1 weight % solution in water). […] Quantification of the stained biofilm was performed by measuring the absorbance at 630 nm using a Multiskan Ascent microplate reader (Thermo Scientific).

[2] = tested on: Actinomyces viscosus; settings: A viscosus
Description: as §1

[3] = tested on: Aggregatibacter actinomycetemcomitans; settings: A actinomycetemcomitans
Description: as §1

[4] = tested on: Capnocytophaga sputigena; settings: C sputigena
Description: as §1

[5] = tested on: Fusobacterium nucleatum; settings: F nucleatum
Description: as §1

[6] = tested on: Porphyromonas gingivalis; settings: P gingivalis
Description: as §1

[7] = tested on: Prevotella intermedia; settings: P intermedia
Description: as §1

[8] = tested on: Streptococcus gordonii; settings: S gordonii
Description: as §1

[9] = tested on: Streptococcus mitis; settings: S mitis
Description: as §1

[10] = tested on: Streptococcus mutans; settings: S mutans, 5 μmol/ml
Description: as §1

N[C@@H](CC(=O)O)C(=O)O [L-aspartic acid]
biofilm growth, OD at 630 nm (crystal violet) at 48 hrs divided by OD of control (control = 1) ([1]; 5 μmol/ml): 1.1735 | biofilm growth, OD at 630 nm (crystal violet) at 48 hrs divided by OD of control (control = 1) ([1]; 10 μmol/ml): 1.2585 | biofilm growth, OD at 630 nm (crystal violet) at 48 hrs divided by OD of control (control = 1) ([1]; 20 μmol/ml): 1.2309 | biofilm growth, OD at 630 nm (crystal violet) at 48 hrs divided by OD of control (control = 1) ([1]; 25 μmol/ml): 1.1175 | biofilm growth, OD at 630 nm (crystal violet) at 48 hrs divided by OD of control (control = 1) ([2]; 5 μmol/ml): 0.5576 | biofilm growth, OD at 630 nm (crystal violet) at 48 hrs divided by OD of control (control = 1) ([2]; 10 μmol/ml): 0.5650 | biofilm growth, OD at 630 nm (crystal violet) at 48 hrs divided by OD of control (control = 1) ([2]; 20 μmol/ml): 0.5834 | biofilm growth, OD at 630 nm (crystal violet) at 48 hrs divided by OD of control (control = 1) ([2]; 25 μmol/ml): 0.5289 | biofilm growth, OD at 630 nm (crystal violet) at 48 hrs divided by OD of control (control = 1) ([3]; 5 μmol/ml): 0.6182 | biofilm growth, OD at 630 nm (crystal violet) at 48 hrs divided by OD of control (control = 1) ([3]; 10 μmol/ml): 0.5044 | biofilm growth, OD at 630 nm (crystal violet) at 48 hrs divided by OD of control (control = 1) ([3]; 20 μmol/ml): 0.4857 | biofilm growth, OD at 630 nm (crystal violet) at 48 hrs divided by OD of control (control = 1) ([3]; 25 μmol/ml): 0.5553 | biofilm growth, OD at 630 nm (crystal violet) at 48 hrs divided by OD of control (control = 1) ([4]; 5 μmol/ml): 0.9508 | biofilm growth, OD at 630 nm (crystal violet) at 48 hrs divided by OD of control (control = 1) ([4]; 10 μmol/ml): 0.9546 | biofilm growth, OD at 630 nm (crystal violet) at 48 hrs divided by OD of control (control = 1) ([4]; 20 μmol/ml): 0.9747 | biofilm growth, OD at 630 nm (crystal violet) at 48 hrs divided by OD of control (control = 1) ([4]; 25 μmol/ml): 0.9785 | biofilm growth, OD at 630 nm (crystal violet) at 48 hrs divided by OD of control (control = 1) ([5]; 5 μmol/ml): 1.2145 | biofilm growth, OD at 630 nm (crystal violet) at 48 hrs divided by OD of control (control = 1) ([5]; 10 μmol/ml): 0.9710 | biofilm growth, OD at 630 nm (crystal violet) at 48 hrs divided by OD of control (control = 1) ([5]; 20 μmol/ml): 0.9621 | biofilm growth, OD at 630 nm (crystal violet) at 48 hrs divided by OD of control (control = 1) ([5]; 25 μmol/ml): 0.8549 | biofilm growth, OD at 630 nm (crystal violet) at 48 hrs divided by OD of control (control = 1) ([6]; 5 μmol/ml): 0.9713 | biofilm growth, OD at 630 nm (crystal violet) at 48 hrs divided by OD of control (control = 1) ([6]; 10 μmol/ml): 0.9936 | biofilm growth, OD at 630 nm (crystal violet) at 48 hrs divided by OD of control (control = 1) ([6]; 20 μmol/ml): 1.0779 | biofilm growth, OD at 630 nm (crystal violet) at 48 hrs divided by OD of control (control = 1) ([6]; 25 μmol/ml): 0.9307 | biofilm growth, OD at 630 nm (crystal violet) at 48 hrs divided by OD of control (control = 1) ([7]; 5 μmol/ml): 1.4322 | biofilm growth, OD at 630 nm (crystal violet) at 48 hrs divided by OD of control (control = 1) ([7]; 10 μmol/ml): 1.6018 | biofilm growth, OD at 630 nm (crystal violet) at 48 hrs divided by OD of control (control = 1) ([7]; 20 μmol/ml): 1.6295 | biofilm growth, OD at 630 nm (crystal violet) at 48 hrs divided by OD of control (control = 1) ([7]; 25 μmol/ml): 1.5442 | biofilm growth, OD at 630 nm (crystal violet) at 48 hrs divided by OD of control (control = 1) ([8]; 5 μmol/ml): 1.3455 | biofilm growth, OD at 630 nm (crystal violet) at 48 hrs divided by OD of control (control = 1) ([8]; 10 μmol/ml): 1.6702 | biofilm growth, OD at 630 nm (crystal violet) at 48 hrs divided by OD of control (control = 1) ([8]; 20 μmol/ml): 2.1065 | biofilm growth, OD at 630 nm (crystal violet) at 48 hrs divided by OD of control (control = 1) ([8]; 25 μmol/ml): 2.2320 | biofilm growth, OD at 630 nm (crystal violet) at 48 hrs divided by OD of control (control = 1) ([9]; 5 μmol/ml): 1.5188 | biofilm growth, OD at 630 nm (crystal violet) at 48 hrs divided by OD of control (control = 1) ([9]; 10 μmol/ml): 1.6156 | biofilm growth, OD at 630 nm (crystal violet) at 48 hrs divided by OD of control (control = 1) ([9]; 20 μmol/ml): 1.5402 | biofilm growth, OD at 630 nm (crystal violet) at 48 hrs divided by OD of control (control = 1) ([9]; 25 μmol/ml): 1.7351 | biofilm growth, OD at 630 nm (crystal violet) at 48 hrs divided by OD of control (control = 1) [10]: 0.0000
